pEC50, pIC50: −log10 of the molar value. ≈ marks a conversion by molar mass, not a printed value.
How the values were obtained:
[1] = test system: U-87 MG; assay: Antiproliferative activity against human U-87 MG cells assessed as reduction in cell viability incubated for 72 hrs by Presto-Blue cell viability assay; type: functional, cell-based, U-87MG ATCC
[2] = test system: U-251; assay: Induction of apoptosis in human U-251MG cells assessed as increase in PARP cleavage at 12.5 to 100 uM incubated for 24 hrs by Western blot analysis; type: functional; settings: dose 12.5-100 µM
[3] = test system: H4; assay: Antiproliferative activity against human H4 cells assessed as reduction in cell viability incubated for 72 hrs by Presto-Blue cell viability assay; type: functional, cell-based; settings: H4, 72 h
[4] = test system: U-87 MG; assay: Antitumor activity against human U-87 MG cells xenografted in mouse model assessed as reduction in tumor growth at 15 mg/kg, ip administered once daily for 5 days relative to control; type: functional, U-87MG ATCC; set-up: scale not given: the % may be the effect or the level left; settings: time 5 day
[5] = test system: C6; assay: Cytotoxicity against rat C6 cells assessed as reduction in cell growth measured for 48 hrs by MTT assay; type: functional, cell-based; settings: C6, 48 h
[6] = Cytotoxicity against human GSC-3 cells assessed as reduction in cell growth incubated for 72 hrs by MTS assay; type: functional, cell-based; settings: GSC-3, 72 h
[7] = Cytotoxicity against human GSC-18 cells assessed as reduction in cell growth incubated for 72 hrs by MTS assay; type: functional, cell-based; settings: GSC18, 72 h
[8] = Cytotoxicity against rat ASK cells assessed as reduction in cell growth by SRB assay; type: functional; settings: read-out: ED50 (the source's name)
[9] = test system: U-251; assay: Antiproliferative activity against human U-251MG cells assessed as reduction in cell growth incubated for 72 hrs by MTT assay; type: functional, cell-based; settings: U-251, 72 h
[10] = test system: U-251; assay: Antiproliferative activity against human U-251MG cells assessed as reduction in cell growth incubated for 48 hrs by MTT assay; type: functional, cell-based; settings: U-251, 48 h
[11] = test system: C6; assay: Antiproliferative activity against rat C6 cells assessed as reduction in cell growth incubated for 48 hrs by MTT assay; type: functional, cell-based; settings: C6, 48 h
[12] = test system: C6; assay: Antiproliferative activity against rat C6 cells assessed as reduction in cell growth incubated for 24 hrs by MTT assay; type: functional
[13] = test system: U-251; assay: Antiproliferative activity against human U-251MG cells assessed as reduction in cell growth incubated for 24 hrs by MTT assay; type: functional, cell-based; settings: U-251, 24 h
[14] = test system: C6; assay: Antiproliferative activity against rat C6 cells assessed as reduction in cell growth incubated for 72 hrs by MTT assay; type: functional, cell-based; settings: C6, 72 h
[15] = test system: U-87 MG; assay: Growth inhibition of human U-87 MG cells measured after 72 hrs by MTT assay; type: functional, U-87MG ATCC
[16] = test system: Hs68; assay: Growth inhibition of human Hs68 cells measured after 72 hrs by MTT assay; type: functional
[17] = Growth inhibition of human U373 MG cells measured after 72 hrs by MTT assay; type: functional, U-373MG ATCC
[18] = test system: T98G; assay: Growth inhibition of human T98G cells measured after 72 hrs by MTT assay; type: functional
[19] = test system: U-118-MG; assay: Antiproliferative activity against human U-118-MG cells assessed as reduction in cell viability incubated for 72 hrs by MTT assay; type: functional, cell-based
[20] = test system: LN-229; assay: Antiproliferative activity against human LN-229 cells assessed as reduction in cell viability by MTT assay; type: functional, cell-based
[21] = test system: T98G; assay: Antiproliferative activity against human T98G cells assessed as reduction in cell viability by MTT assay; type: functional, cell-based
[22] = test system: LN-18; assay: Antiproliferative activity against human LN-18 cells assessed as inhibition of cell growth incubated for 72 hrs MTS assay; type: functional, cell-based; settings: LN-18, 72 h
[23] = test system: U-251; assay: Antiproliferative activity against human U-251MG cells assessed as reduction in cell viability incubated for 72 hrs by MTT assay; type: functional, cell-based; settings: U-251, 72 h
[24] = Antiproliferative activity against human SHG-44 cells assessed as reduction in cell viability by MTT assay; type: functional, cell-based
[25] = test system: C6; assay: Antiproliferative activity against rat C6 cells assessed as reduction in cell viability by MTT assay; type: functional, cell-based
[26] = test system: U-87 MG; assay: Antiproliferative activity against human U-87 MG cells assessed as reduction in cell viability incubated for 72 hrs by MTT assay; type: functional, cell-based, U-87MG ATCC
[27] = test system: C6; assay: Antiproliferative activity against rat C6 cells assessed as reduction in cell growth at 10 uM incubated for 24 hrs by MTT assay relative to control; type: functional; set-up: scale not given: the % may be the effect or the level left
[28] = test system: T98G; assay: Antiproliferative activity against human T98G cells assessed as reduction in cell viability measured for 24 hrs by MTT assay; type: functional, cell-based
[29] = Cytotoxicity against HEK293T cells assessed as reduction in cell viability incubated for 72 hrs by MTS assay; type: toxicity, cell-based, HEK-293T; settings: human
[30] = Inhibition of rat C6 cells at 1 micromol/L measured for 24 hrs relative to control; type: functional; settings: C6, 24 h, dose 1 µmol/L
[31] = Inhibition of rat C6 cells at 2 micromol/L measured for 24 hrs relative to control; type: functional; settings: C6, 24 h, dose 2 µmol/L
[32] = test system: SF-268; assay: Cytotoxicity against human SF-268 cells assessed as reduction in cell viability incubated for 4 days by MTT assay; type: functional; settings: SF-268, 96 h, time 4 day
[33] = test system: HaCaT; assay: Growth inhibition of human HaCaT cells measured after 48 hrs by sulforhodamine B assay; type: functional
[34] = test system: U-251; assay: Growth inhibition of human U-251 cells measured after 48 hrs by sulforhodamine B assay; type: functional
[35] = test system: RPMI 8402; assay: Cytotoxicity against human RPMI 8402 cells assessed as reduction in cell viability incubated for 4 days by MTT assay; type: functional, cell-based; settings: RPMI 8402, 96 h
[36] = Cytotoxicity against human CHG-5 cells assessed as reduction in cell growth incubated for 24 hrs by MTT assay; type: functional, cell-based; settings: CHG-5, 24 h
[37] = test system: CCF-STTG1; assay: Cytotoxicity against human CCF-STTG1 cells assessed as reduction in cell growth incubated for 24 hrs by MTT assay; type: functional, cell-based; settings: CCF-STTG1, 24 h
[38] = Cytotoxicity against human SHG-44 cells assessed as reduction in cell growth incubated for 24 hrs by MTT assay; type: functional, cell-based; settings: SHG-44, 24 h
[39] = test system: U-251; assay: Cytotoxicity against human U-251MG cells assessed as reduction in cell growth incubated for 24 hrs by MTT assay; type: functional, cell-based; settings: U-251, 24 h
[40] = test system: SF-268; assay: Cytotoxicity against human SF-268 cells; type: functional; settings: read-out: ED50 (the source's name)
[41] = test system: U-87 MG; assay: Cytotoxicity against human U-87 MG cells assessed as reduction in cell growth incubated for 48 hrs by MTT assay; type: functional, cell-based, U-87MG ATCC

COc1ccc2c(c1)[nH]c1c(C)nccc12 [HARMINE]
pIC50 [1]: 4.34
Activity [2]: 346%
pIC50 [3]: 5.31
Activity [4]: 16.5%

COc1ccc(C[C@@H]2c3cc(Oc4cc(C[C@@H]5c6cc(OC)c(OC)cc6CCN5C)ccc4O)c(OC)cc3CCN2C)cc1 [NEFERINE]
pIC50 [5]: 4.92

COc1cc2c(cc1Oc1c(C=O)ccc(OC)c1OC)cc1c3c(c(OC)c(OC)c(OC)c32)CCN1C
IC50 [6]: 4.54 µg/mL (≈ 8.51 µM)
IC50 [7]: 5.37 µg/mL (≈ 10.1 µM)
EC50 [8]: 2.11 µg/mL (≈ 3.95 µM)

COc1ccc2c(c1OC)CN(C)c1c-2ccc2cc3c(cc12)OCO3 [DIHYDROCHELERYTHRINE]
pEC50 [9]: 4.04
pEC50 [10]: 4.03
pEC50 [11]: 4.00
EC50 [12]: 121.4 µM
pEC50 [13]: 3.95
pEC50 [14]: 4.03

CO[C@@H]1C=C[C@]23c4cc5c(cc4[C@@H](O)N(C[C@H]2O)[C@@H]3C1)OCO5
GI50 [15]: 6 µM
GI50 [16]: 4 µM
GI50 [17]: 7 µM
GI50 [18]: 14 µM

COc1ccc2cc3[n+](cc2c1OC)CCc1cc2c(cc1-3)OCO2 [BERBERINE]
pIC50 [19]: 4.45
IC50 [20]: 81.3 µg/L
pIC50 [21]: 3.92
pIC50 [22]: 4.05
pIC50 [23]: 5.01
IC50 [24]: 274.8 µg/L
pIC50 [25]: 4.29
pIC50 [26]: 4.66
Activity [27]: 88%
IC50 [28]: 134 µg/mL

COc1cc2c(cc1OC)[C@H](Cc1cc(O)c(OC)c(Oc3ccc(C=O)cc3)c1)N(C)CC2
IC50 at 72 h [29]: 20 µg/mL (≈ 43.1 µM)

C[n+]1cc2c3c(ccc2c2ccc4cc5c(cc4c21)OCO5)OCO3
inhibition at 1 µM [30]: 35%
inhibition at 2 µM [31]: 82%

COc1cc2c(cc1OC)-c1cc3ccc(OC)c(OC)c3c[n+]1CC2 [PALMITINE]
GI50 [32]: 3 µg/mL
GI50 [33]: 122 µM
GI50 [34]: 16.2 µM
IC50 [35]: 10 µg/mL

COC(=O)N1CCc2cc(O)c(OC)c3c2[C@@H]1Cc1ccc(OC)c(O)c1-3
pIC50 [36]: 4.91
pIC50 [37]: 4.98
pIC50 [38]: 4.92
pIC50 [39]: 4.92

O=C1N[C@H]2[C@H](O)[C@H](O)[C@@H](O)[C@H](O)[C@@H]2c2cc3c(c(O)c21)OCO3 [PANCRATISTATIN]
EC50 [40]: 0.017 µg/mL (≈ 0.0523 µM)

COc1cc2c(cc1Oc1c(C=O)ccc(OC)c1OC)C(=O)c1nccc3c(OC)c(OC)c(OC)c-2c13
IC50 [6]: 2.36 µg/mL (≈ 4.44 µM)
IC50 [7]: 2.55 µg/mL (≈ 4.8 µM)
EC50 [8]: 10.2 µg/mL (≈ 19.2 µM)

COC(=O)N1CCc2cc3c(c4c2[C@@H]1Cc1ccc(OC)c(OC)c1-4)OCO3
pIC50 [36]: 5.01
pIC50 [37]: 5.04
pIC50 [38]: 4.95
pIC50 [39]: 4.95

O[C@@H]1CN2Cc3cc4c(cc3C13C=C[C@H](O)C[C@@H]23)OCO4 (some centres not stated)
GI50 [15]: 9 µM
GI50 [16]: 11 µM
GI50 [17]: 38 µM
GI50 [18]: 9 µM

COc1ncc(O)c2c(O)cccc12
pIC50 [41]: 5.67

Reference: ChEMBL document CHEMBL6115010, “Targeting glioma with heteroaromatic alkaloids: A review of potential therapeutics” (Bioorg Med Chem, 2025)
